Reference: ChEMBL document CHEMBL1201862, “PubChem BioAssay data set” (2004)
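48-hour exposure; five concentrations; linearly interpolated endpoints. The concentration for 50% growth inhibition is given as GI50.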 Calls of active or inactive are those of the source. Cut-off read from the data, not from the text of the source: active = GI50 up to about 1.1 µM and inactive = higher.

Experiments:
Test in all cases: DTP human tumour cell line panel, 48 h
[1] = test system: HOP-18
[2] = test system: SN12C
[3] = test system: M19-MEL
[4] = test system: KM-20L2
[5] = test system: HOP-62
[6] = test system: SK-MEL-5
[7] = test system: OVCAR-4
[8] = test system: OVCAR-5
[9] = test system: NCI-H23
[10] = test system: MOLT-4
[11] = test system: RXF 393
[12] = test system: LXFL 529
[13] = test system: UACC-62
[14] = test system: U-251
[15] = test system: HCC 2998
[16] = test system: CAKI-1
[17] = test system: OVCAR-8
[18] = test system: COLO 205
[19] = test system: CCRF-CEM
[20] = test system: IGROV-1
[21] = test system: HL-60
[22] = test system: NCI-H460
[23] = test system: SK-MEL-2
[24] = test system: SNB-19
[25] = test system: LOX IMVI
[26] = test system: UACC-257
[27] = test system: 786-0
[28] = test system: NCI-H226
[29] = test system: K562
[30] = test system: ACHN
[31] = test system: OVCAR-3
[32] = test system: SK-MEL-28
[33] = test system: M14
[34] = test system: KM12
[35] = test system: HT-29
[36] = test system: A498
[37] = test system: Malme-3M
[38] = test system: UO-31
[39] = test system: SF-268
[40] = test system: SK-OV-3
[41] = test system: DLD-1
[42] = test system: RPMI-8226
[43] = test system: DMS-273
[44] = test system: HCT-15
[45] = test system: NCI-H522
[46] = test system: SNB-75
[47] = test system: SNB-78
[48] = test system: SF-539
[49] = test system: SF-295
[50] = test system: DMS-114
[51] = test system: TK-10
[52] = test system: HCT-116
[53] = test system: A549
[54] = test system: HOP-92
[55] = test system: SW-620
[56] = test system: NCI/ADR-RES
[57] = test system: MCF7

## O=C1c2ccccc2CCCCCCCCCCC12OCCCO2
[1]
  GI50: 47.9 µM (inactive)
[2]
  GI50: 55 µM (inactive)
[3]
  GI50: 36.6 µM (inactive)
[4]
  GI50: 22.9 µM (inactive)
[5]
  GI50: 49.9 µM (inactive)
[6]
  GI50: 35.6 µM (inactive)
[7]
  GI50: 57.1 µM (inactive)
[8]
  GI50: 26.7 µM (inactive)
[9]
  GI50: 40.3 µM (inactive)
[10]
  GI50: 17.7 µM (inactive)
[11]
  GI50: 10.6 µM (inactive)
[12]
  GI50: 58.9 µM (inactive)
[13]
  GI50: 82.2 µM (inactive)
[14]
  GI50: 24.4 µM (inactive)
[15]
  GI50: 25.4 µM (inactive)
[16]
  GI50: 25.5 µM (inactive)
[17]
  GI50: 87.3 µM (inactive)
[18]
  GI50: 19.2 µM (inactive)
[19]
  GI50: 25.3 µM (inactive)
[20]
  GI50: 41.4 µM (inactive)
[21]
  GI50: 16 µM (inactive)
[22]
  GI50: 26.4 µM (inactive)
[23]
  GI50: 24.3 µM (inactive)
[24]
  GI50: 29.5 µM (inactive)
[25]
  GI50: 29.2 µM (inactive)
[26]
  GI50: 24 µM (inactive)
[27]
  GI50: 67.1 µM (inactive)
[28]
  GI50: 35.6 µM (inactive)
[29]
  GI50: 68.4 µM (inactive)
[30]
  GI50: 52.4 µM (inactive)
[31]
  GI50: 32.5 µM (inactive)
[32]
  GI50: 55.8 µM (inactive)
[33]
  GI50: 51.3 µM (inactive)
[34]
  GI50: 27.6 µM (inactive)
[35]
  GI50: 15.1 µM (inactive)
[36]
  GI50: 32.1 µM (inactive)
[37]
  GI50: 30.9 µM (inactive)
[38]
  GI50: 79.3 µM (inactive)
[39]
  GI50: 11.8 µM (inactive)
[40]
  GI50: 80.5 µM (inactive)
[41]
  GI50: 60.4 µM (inactive)
[42]
  GI50: 15.5 µM (inactive)
[43]
  GI50: 70.5 µM (inactive)
[44]
  GI50: 25.8 µM
[45]
  GI50: 24.5 µM (inactive)
[46]
  GI50: 25.6 µM (inactive)
[47]
  GI50: 22.6 µM (inactive)
[48]
  GI50: 58.1 µM (inactive)
[49]
  GI50: 34.7 µM (inactive)
[50]
  GI50: 12.2 µM (inactive)
[51]
  GI50: > 100 µM (inactive)
[52]
  GI50: 16 µM (inactive)
[53]
  GI50: 28.8 µM (inactive)

## Nc1ccn(C2C=C(CO)C(O)C2O)c(=O)c1 (stereo not drawn)
[1]
  GI50: > 625 µM (inactive)
[2]
  GI50: > 625 µM (inactive)
[3]
  GI50: > 625 µM (inactive)
[4]
  GI50: > 625 µM (inactive)
[5]
  GI50: > 625 µM (inactive)
[6]
  GI50: > 625 µM (inactive)
[7]
  GI50: > 625 µM (inactive)
[54]
  GI50: > 625 µM (inactive)
[13]
  GI50: > 625 µM (inactive)
[15]
  GI50: > 625 µM (inactive)
[16]
  GI50: > 625 µM (inactive)
[55]
  GI50: > 625 µM (inactive)
[17]
  GI50: > 625 µM (inactive)
[18]
  GI50: > 625 µM (inactive)
[20]
  GI50: > 625 µM (inactive)
[21]
  GI50: > 625 µM (inactive)
[22]
  GI50: > 625 µM (inactive)
[23]
  GI50: > 625 µM (inactive)
[24]
  GI50: > 625 µM (inactive)
[25]
  GI50: > 625 µM (inactive)
[56]
  GI50: > 625 µM (inactive)
[57]
  GI50: > 625 µM (inactive)
[28]
  GI50: > 625 µM (inactive)
[31]
  GI50: > 625 µM (inactive)
[34]
  GI50: > 625 µM (inactive)
[35]
  GI50: > 625 µM (inactive)
[38]
  GI50: > 625 µM (inactive)
[39]
  GI50: > 625 µM (inactive)
[40]
  GI50: > 625 µM (inactive)
[41]
  GI50: > 62.5 µM (inactive)
[42]
  GI50: > 625 µM (inactive)
[43]
  GI50: > 625 µM (inactive)
[44]
  GI50: > 625 µM
[46]
  GI50: > 625 µM (inactive)
[47]
  GI50: > 625 µM (inactive)
[48]
  GI50: > 625 µM (inactive)
[49]
  GI50: > 625 µM (inactive)
[50]
  GI50: > 625 µM (inactive)
[52]
  GI50: > 625 µM (inactive)
[53]
  GI50: > 625 µM (inactive)
